Among the data in the PolyMetriX glass transition set are glass transition temperature values, retold here.

With `*C(=O)Nc1ccc(Oc2ccccc2-c2ccccc2Oc2ccc(NC(=O)c3ccc4c(c3)C(=O)N(c3ccc(Oc5ccc(Oc6ccc(N7C(=O)c8ccc(*)cc8C7=O)cc6)cc5)cc3)C4=O)cc2)cc1` (repeat unit), the glass transition temperature was found to be 238.00 °C.
For `*C(=O)Nc1ccc(Oc2ccccc2-c2ccccc2Oc2ccc(NC(=O)c3ccc4c(c3)C(=O)N(c3cccc(N5C(=O)c6ccc(*)cc6C5=O)c3)C4=O)cc2)cc1` (repeat unit) the value was 237.00 °C; for `*C(=O)Nc1ccc(S(=O)(=O)c2ccc(NC(=O)c3ccc4c(c3)C(=O)N(c3cc(-c5nc6ccccc6s5)cc(N5C(=O)c6ccc(*)cc6C5=O)c3)C4=O)cc2)cc1` (repeat unit), 357.00 °C; for `*C(=O)Nc1ccc(S(=O)(=O)c2ccc(NC(=O)c3ccc4c(c3)C(=O)N(c3ccc(-c5sc(-c6ccc(N7C(=O)c8ccc(*)cc8C7=O)cc6)c(-c6ccccc6)c5-c5ccccc5)cc3)C4=O)cc2)cc1` (repeat unit), 340.00 °C.
For `*C(=O)Nc1cccc(C(=O)Nc2cccc(NC(=O)c3ccc4[nH]c(-c5ccc(-c6nc7cc(*)ccc7[nH]6)cc5)nc4c3)c2)c1` (repeat unit) the value was 312.00 °C; for `*C(=O)Nc1cccc(N2C(=O)CC(N3C(=O)c4ccc(*)cc4C3=O)C2=O)c1` (repeat unit), 130.00 °C; for `*C(=O)Nc1cccc(NC(=O)c2ccc3[nH]c(-c4cc(-c5nc6cc(*)ccc6[nH]5)cc(N5C(=O)c6ccccc6C5=O)c4)nc3c2)n1` (repeat unit), 312.00 °C.
Consider `*C(=O)Nc1cccc(NC(=O)c2ccc3[nH]c(-c4ccc(-c5nc6cc(*)ccc6[nH]5)cc4)nc3c2)c1` (repeat unit), for which the glass transition temperature was 294.00 °C.
Regarding `*C(=O)Nc1cccc(NC(=O)c2ccc3[nH]c(-c4cccc(-c5nc6cc(*)ccc6[nH]5)c4)nc3c2)c1` (repeat unit), the glass transition temperature was determined as 297.50 °C.
`*C(=O)Nc1cccc(NC(=O)c2ccc3c(c2)C(=O)N(c2ccc(Oc4ccc(C5(c6ccc(Oc7ccc(N8C(=O)c9ccc(*)cc9C8=O)cc7)cc6)NC(=O)c6ccccc65)cc4)cc2)C3=O)c1` (repeat unit) gave a glass transition temperature of 328.00 °C.
The result for `*C(=O)Nc1cccc(NC(=O)c2ccc3c(c2)C(=O)N(c2ccc(Oc4ccc5ccc(Oc6ccc(N7C(=O)c8ccc(*)cc8C7=O)cc6)cc5c4)cc2)C3=O)c1` (repeat unit) reads 286.00 °C.
Take `*C(=O)Nc1cccc(NC(=O)c2ccc3c(c2)C(=O)N(c2ccc(Oc4cccc5c(N6C(=O)c7ccc(*)cc7C6=O)cccc45)cc2)C3=O)n1` (repeat unit): the glass transition temperature is 293.00 °C.
With `*C(=O)Nc1cccc(NC(=O)c2ccc3c(c2)C(=O)N(c2ccc(Oc4cccc5c(Oc6ccc(N7C(=O)c8ccc(*)cc8C7=O)cc6)cccc45)cc2)C3=O)c1` (repeat unit), the glass transition temperature is 263.00 °C.
The result for `*C(=O)Nc1cccc(Oc2ccc(S(=O)(=O)c3ccc(Oc4cccc(NC(=O)c5ccc(N6C(=O)c7ccc(*)cc7C6=O)cc5)c4)cc3)cc2)c1` (repeat unit) reads 235.00 °C; that for `*C(=O)c1ccc(C(=O)c2ccc3c(c2)C(=O)N(c2ccc(C(=O)c4ccc(C(=O)c5ccc(N6C(=O)c7ccc(*)cc7C6=O)cc5)cc4)cc2)C3=O)cc1` (repeat unit), 260.00 °C; that for `*CCCCCCCCOc1cccc(NC(=O)c2ccc(C(=O)Nc3cccc(O*)c3)cc2)c1` (repeat unit), 122.00 °C.
As for `*CCCCCCCCOc1cccc(NC(=O)c2cccc(C(=O)Nc3cccc(O*)c3)c2)c1` (repeat unit), the glass transition temperature is 117.00 °C.
Regarding `*CCCCCCOC(=O)Nc1cccc(P(=O)(c2ccccc2)c2cccc(NC(=O)O*)c2)c1` (repeat unit), the glass transition temperature turned out to be 30.00 °C.
For `*CCCCCOc1cccc(NC(=O)c2cccc(C(=O)Nc3cccc(O*)c3)c2)c1` (repeat unit) the value was 131.50 °C; for `*CCOCCOc1cccc(NC(=O)c2ccc(C(=O)Nc3cccc(O*)c3)cc2)c1` (repeat unit), 140.00 °C; for `*Nc1ccc(*)cc1` (repeat unit), 75.30 °C.
The result for `*Nc1cccc(C(=O)c2ccc(NC(=O)c3cccc(C(=O)c4ccc(C(*)=O)cc4)c3)cc2)c1` (repeat unit) reads 215.00 °C; that for `*Nc1cccc(NC(=C(C#N)C#N)c2cccc(C(*)=C(C#N)C#N)c2)c1` (repeat unit), 278.00 °C.
The result for `*Nc1cccc(NC(=O)c2ccc(C(*)=O)cc2)c1` (repeat unit) reads 238.00 °C.
`*Oc1ccc(-c2ccc(OC(=O)Nc3cccc(P(=O)(c4ccccc4)c4cccc(NC(*)=O)c4)c3)cc2)cc1` (repeat unit) returned a glass transition temperature of 72.00 °C.
The result for `*Oc1ccc(C(=O)Nc2ccc(S(=O)(=O)c3ccc(NC(=O)c4ccc(Oc5ccc(C(=O)c6ccc(S(=O)(=O)c7ccc(C(=O)c8ccc(*)cc8)cc7)cc6)cc5)cc4)cc3)cc2)cc1` (repeat unit) reads 260.00 °C.
The result for `*Oc1ccc(C(=O)c2ccc(C(=O)c3ccc(Oc4cccc(Cc5cccc(*)c5)c4)cc3)cc2)cc1` (repeat unit) reads 122.00 °C; that for `*Oc1ccc(C(=O)c2cccc(NC(=O)c3cccc(C(=O)Nc4ccc(C(=O)c5ccc(*)cc5)cc4)c3)c2)cc1` (repeat unit), 204.00 °C.
Compound `*Oc1ccc(Oc2ccc(C(=O)c3cccc(NC(=O)c4cccc(C(=O)Nc5cccc(C(=O)c6ccc(*)cc6)c5)c4)c3)cc2)cc1` (repeat unit) yielded a glass transition temperature of 202.00 °C.
For `*Oc1ccc2ccc(Oc3ccc(C(=O)Nc4cccc(NC(=O)c5ccc(*)cc5)c4)cc3)cc2c1` (repeat unit) the value was 168.00 °C.
For the compound `*Oc1cccc(NC(=O)c2cc(C(=O)Nc3ccc(*)cc3)cc(C(F)(F)C(F)(F)C(F)(F)C(F)(F)C(F)(F)C(F)(F)C(F)(F)C(F)(F)F)c2)c1` (repeat unit), the glass transition temperature amounted to 210.00 °C.
For `*Oc1cccc(NC(=O)c2cc(C(=O)Nc3ccc(*)cc3)cc(C(F)(F)C(F)(F)C(F)(F)C(F)(F)F)c2)c1` (repeat unit) the value was 230.00 °C; for `*Oc1cccc(NC(=O)c2ccc(C(=O)c3cccc(C(=O)Nc4ccc(*)cc4)c3)cc2)c1` (repeat unit), 237.00 °C.
For `*Oc1cccc(NC(=O)c2ccc(P(=O)(c3ccccc3)c3ccc(C(=O)Nc4cccc(Oc5ccc(P(=O)(c6ccccc6)c6ccc(*)cc6)cc5)c4)cc3)cc2)c1` (repeat unit) the value was 235.00 °C; for `*Oc1cccc(NC(=O)c2cccc(C(=O)Nc3ccc(*)cc3)c2)c1` (repeat unit), 240.00 °C; for `*Oc1cccc(Oc2cccc(NC(=O)c3cccc(Oc4cccc(Oc5cccc(C(=O)Nc6cccc(*)c6)c5)c4)c3)c2)c1` (repeat unit), 137.50 °C.
For `*c1ccc(-c2cc(-c3ccc(-c4ccccc4)cc3)cc(-c3ccc(N4C(=O)c5ccc(NC(=O)Nc6ccc(Oc7ccccc7-c7ccccc7Oc7ccc(NC(=O)Nc8ccc9c(c8)C(=O)N(*)C9=O)cc7)cc6)cc5C4=O)cc3)n2)cc1` (repeat unit) the value was 249.00 °C.
As for `*c1ccc(-c2cc(-c3ccc(-c4ccccc4)cc3)cc(-c3ccc(N4C(=O)c5ccc(NC(=O)Nc6cccc(NC(=O)Nc7ccc8c(c7)C(=O)N(*)C8=O)n6)cc5C4=O)cc3)n2)cc1` (repeat unit), the glass transition temperature turned out to be 248.00 °C.
On to `*c1ccc(C(=O)Nc2cccc(Oc3ccc(S(=O)(=O)c4ccc(Oc5cccc(NC(=O)c6ccc(N7C(=O)c8ccc(-c9ccc%10c(c9)C(=O)N(*)C%10=O)cc8C7=O)cc6)c5)cc4)cc3)c2)cc1` (repeat unit), for which the glass transition temperature was determined as 262.00 °C.
For `*c1ccc(Oc2ccc3ccccc3c2-c2c(Oc3ccc(N4C(=O)c5ccc(NC(=O)Nc6ccc(Oc7ccccc7-c7ccccc7Oc7ccc(NC(=O)Nc8ccc9c(c8)C(=O)N(*)C9=O)cc7)cc6)cc5C4=O)cc3)ccc3ccccc23)cc1` (repeat unit) the value was 285.00 °C.
`*c1ccc(Oc2ccc3ccccc3c2-c2c(Oc3ccc(N4C(=O)c5ccc(NC(=O)Nc6cccc(NC(=O)Nc7ccc8c(c7)C(=O)N(*)C8=O)n6)cc5C4=O)cc3)ccc3ccccc23)cc1` (repeat unit) had a glass transition temperature of 283.00 °C.
`*c1ccc(Oc2ccc3ccccc3c2-c2c(Oc3ccc(N4C(=O)c5ccc(NC(=O)Nc6cccc7c(NC(=O)Nc8ccc9c(c8)C(=O)N(*)C9=O)cccc67)cc5C4=O)cc3)ccc3ccccc23)cc1` (repeat unit) had a glass transition temperature of 297.00 °C.
Turning to `*c1ccc(Oc2cccc(NC(=O)c3cc(C(=O)Nc4cccc(Oc5ccc(-c6nnc(*)o6)cc5)c4)cc(N4C(=O)c5c(Cl)c(Cl)c(Cl)c(Cl)c5C4=O)c3)c2)cc1` (repeat unit), the glass transition temperature turned out to be 275.00 °C.
The compound `*c1ccc(Oc2cccc(NC(=O)c3ccc(C(=O)Nc4cccc(Oc5ccc(-c6nnc(*)o6)cc5)c4)c(Oc4ccccc4)c3)c2)cc1` (repeat unit) returned a glass transition temperature of 234.00 °C.
For `*c1cccc(NC(=O)c2ccc(OCCOCCOCCOCCOCCOc3ccc(C(=O)Nc4ccc5[nH]c(*)nc5c4)cc3)cc2)c1` (repeat unit) the value was 140.00 °C; for `*c1cccc(NC(=O)c2ccc(OCCOc3ccc(C(=O)Nc4ccc5[nH]c(*)nc5c4)cc3)cc2)c1` (repeat unit), 250.00 °C.
The result for `*c1cccc(P(=O)(c2ccccc2)c2cccc(N3C(=O)c4ccc(NC(=O)OCCOc5ccc(C(c6ccc(OCCOC(=O)Nc7ccc8c(c7)C(=O)N(*)C8=O)cc6)(C(F)(F)F)C(F)(F)F)cc5)cc4C3=O)c2)c1` (repeat unit) reads 214.00 °C.
Turning to `*c1cccc(P(=O)(c2ccccc2)c2cccc(N3C(=O)c4ccc(NC(=O)OCCOc5ccc(P(=O)(c6ccccc6)c6ccc(OCCOC(=O)Nc7ccc8c(c7)C(=O)N(*)C8=O)cc6)cc5)cc4C3=O)c2)c1` (repeat unit), the glass transition temperature worked out at 218.00 °C.
